Series [1] concerns rats. To be noted: inflammatory soup infusion; historical data; cited from earlier work.
In another series the test system is PACAP-38. Conditions: treatment with sumatriptan; cited from earlier work.
For series [2], the system named is TRPM3. Type of series: cell-based, C57BL/6NJ mice and Sprague Dawley rats. Conditions: cultured DRG neurons; agonist 30 min at 37° C.; PS 100 μM; ELISA. (In general: In an ELISA, binding on a coated surface is turned into a signal by an enzyme label.)
Series [3] concerns TRPM3. Type of series: cell-based, mouse. To be noted: for TRPM3 dependence of agonist-induced PACAP release: mouse DRG and TG cells, wild type vs Trpm3 knockout.
The subject of series [4] is TRPM3. The series is described as follows: CGRP release assay, wild type and Trpm3 knock out DRG and TG neurons. It counts as cell-based, mouse. To be noted: for CGRP release from Trpm3 deficient sensory neurons: Trpm3 knock out DRG and TG neurons; for CGRP release from wild type sensory neurons: wild type DRG and TG neurons.
Series [5] has as its target T1, TRPM3 (Mus musculus, UniProt J9SQF3). To be noted: Held et al., PNAS 2015; cited from earlier work.
The subject of series [6] is TRPM3. Type of series: cell-based, C57BL/6NJ mice and Sprague Dawley rats. Conditions: cultured TG neurons; agonist 30 min at 37° C.; ELISA.
The test system of series [7] is rats. The series is described as follows: Five-day rat dural infusion migraine model, periorbital von Frey testing. Conditions: for Sensitivity to periorbital von Frey stimulation compared to vehicle treated animals: Day 5 (after 4 infusions). It counts as in vivo. Here is the method:
The five-day rat Dural infusion migraine model is based on repeated inflammatory dural stimulation to mimic the repeated activation of dural afferents believed to occur in patients with recurrent migraine headache. In this model, rats are tested in the periorbital region for mechanical allodynia (a pain response to stimuli which are not normally painful) using von Frey fibres, which are small calibrated fibres which deliver a calibrated amount of force.
The surgery, infusion, and testing followed the modification of the method of Oshinsky & Gomoncharconsiri, 2007, supra. Briefly, rats were habituated and trained for 1-2 weeks and then fitted with a stainless-steel cannula (22GA, Plastics One) under isoflurane anaesthesia. […] Special attention was given not to disturb the dura. A custom flange guide cannula (22GA, Plastics One) was inserted into the hole (cut 0.5 mm below pedestal). The cannula was fixed to the bone with small screws and dental cement. A dummy that extended just past the end of the cannula was inserted to prevent scar tissue from forming, and thus clogging the cannula. Animals were allowed 1-2 weeks of recovery before testing and infusions began.
Periorbital thresholds were monitored during the recovery period to ensure the thresholds returned to pre-surgery baselines. […] Extra animals were included to account for any post-surgery animal that needed to be excluded.
After recovering from surgery, animals were infused supra-durally with treatments according to Table 1 for 5 consecutive days. Under isoflurane, the animal's nose was place in the nose cone of the anaesthesia machine. Using a haemostat, the base of the flange cannula was clasped, and the dummy cannula was removed. A custom cannula injector was inserted into the flange cannula. With a Hamilton syringe and infusion pump at a rate of 1.759 μl/min 15 μl of formulations was delivered supra-durally.
Animals were randomly assigned to a treatment group (A-C) using a software generated randomization scheme. From the first day of sensitization, each animal was tested routinely (every 2-3 days) for changes in periorbital sensitivity by a blinded investigator.
Pre-infusion sensory testing occurred on Day 1 of the testing schedule to provide a point of comparison for subsequent testing. Sensory testing occurred according to the testing schedule established in Table 1, and prior to infusion when applicable. Sensory testing utilized von Frey filaments with reproducible calibrated buckling forces varying from 0.4-10 g utilizing the Chaplan up and down method. Allodynia was tested by perpendicularly touching the periorbital region causing slight buckling of the filament for approximately 5 seconds. Based on the response pattern and the force of the final filament, the periorbital threshold (g) was calculated (Chaplan et al., 1994, Quantitative assessment of tactile allodynia in the rat paw. Journal of neuroscience methods, 53(1), 55-63). The supra-dural infusions were above the dura in the right brain hemisphere; therefore, the right periorbital threshold data only was recorded. A positive response was characterized by several behavioural criteria: stroking the face with a forepaw, head withdrawal from the stimulus, and head shaking.

For another series, the target named is T2, TRPM3 (SEQ ID NO: 2) (Homo sapiens, UniProt Q9HCF6).
T2 construct: expressed in transfected cells; host or cells: HEK MSR II cells transduced with BacMam virus (codon optimised cDNA)
The series can be described thus: Calcium mobilisation assay, HEK MSR II cells expressing canonical TRPM3. It counts as cell-based. Conditions: for Relative agonist potency of the isomers of CIM0216 in calcium mobilisation assay: R-isomer vs S-isomer. The procedure: (§1) Example 3—Calcium mobilisation assay and cell lines Calcium mobilisation assays were performed in HEK MSR II cells loaded with the calcium indicator dye Fluo4. The cells were induced to express TRPM3 (SEQ ID NO: 2) or mutants thereof by transducing them with Bacmam virus containing the codon optimised cDNA sequence for the required TRPM3 variant at a multiplicity of infection of approximately 40 for 48 hours prior to the experiment. Cells were incubated in the presence of FLUO4-AM and TRPM3 inhibitors for approx 1.5 hrs prior to transfer to a FLIPR where the cells were treated with TRPM3 agonists to induce calcium mobilisation. Fluo4 fluorescence was monitored for 10 min. As a positive control the cells were then treated with the calcium ionophore ionomycin and the fluorescence monitored for a further 3 min.

For series [8], the target named is T3, variant of SEQID NO: 2 having the R1670Q mutation (Homo sapiens, UniProt Q9HCF6, R1695Q).
T3 construct: expressed in transfected cells; host or cells: HEK MSR II cells transduced with BacMam virus (codon optimised cDNA)
The series can be described thus: Calcium mobilisation assay, HEK MSR II cells expressing TRPM3 R1670Q variant. Type of series: cell-based. The procedure: as §1

The target in series [9] is T1, TRPM3. Set-up: trigeminal neurons from mice; host or cells: trigeminal neurons from mice. To be noted: Vriens et al., Neuron 2011; cited from earlier work.
[10] abbreviates: supra-dural infusion 5 days, Pregnenolone sulphate 5 mM, CIM0216 215 μM.
The mark [11] stands for this setting: HEK MSR II cells, Bacmam transduction.

This is an account of results in patent US20230220037A1, “NOVEL USE” (GlaxoSmithKline Intellectual Property (No.3) Limited, priority 0001, published 2023).

“Also recorded” adds a separate entry of the source.

T3 sequence (Q9HCF6 1-1707 isoform Q9HCF6-2 R1670Q): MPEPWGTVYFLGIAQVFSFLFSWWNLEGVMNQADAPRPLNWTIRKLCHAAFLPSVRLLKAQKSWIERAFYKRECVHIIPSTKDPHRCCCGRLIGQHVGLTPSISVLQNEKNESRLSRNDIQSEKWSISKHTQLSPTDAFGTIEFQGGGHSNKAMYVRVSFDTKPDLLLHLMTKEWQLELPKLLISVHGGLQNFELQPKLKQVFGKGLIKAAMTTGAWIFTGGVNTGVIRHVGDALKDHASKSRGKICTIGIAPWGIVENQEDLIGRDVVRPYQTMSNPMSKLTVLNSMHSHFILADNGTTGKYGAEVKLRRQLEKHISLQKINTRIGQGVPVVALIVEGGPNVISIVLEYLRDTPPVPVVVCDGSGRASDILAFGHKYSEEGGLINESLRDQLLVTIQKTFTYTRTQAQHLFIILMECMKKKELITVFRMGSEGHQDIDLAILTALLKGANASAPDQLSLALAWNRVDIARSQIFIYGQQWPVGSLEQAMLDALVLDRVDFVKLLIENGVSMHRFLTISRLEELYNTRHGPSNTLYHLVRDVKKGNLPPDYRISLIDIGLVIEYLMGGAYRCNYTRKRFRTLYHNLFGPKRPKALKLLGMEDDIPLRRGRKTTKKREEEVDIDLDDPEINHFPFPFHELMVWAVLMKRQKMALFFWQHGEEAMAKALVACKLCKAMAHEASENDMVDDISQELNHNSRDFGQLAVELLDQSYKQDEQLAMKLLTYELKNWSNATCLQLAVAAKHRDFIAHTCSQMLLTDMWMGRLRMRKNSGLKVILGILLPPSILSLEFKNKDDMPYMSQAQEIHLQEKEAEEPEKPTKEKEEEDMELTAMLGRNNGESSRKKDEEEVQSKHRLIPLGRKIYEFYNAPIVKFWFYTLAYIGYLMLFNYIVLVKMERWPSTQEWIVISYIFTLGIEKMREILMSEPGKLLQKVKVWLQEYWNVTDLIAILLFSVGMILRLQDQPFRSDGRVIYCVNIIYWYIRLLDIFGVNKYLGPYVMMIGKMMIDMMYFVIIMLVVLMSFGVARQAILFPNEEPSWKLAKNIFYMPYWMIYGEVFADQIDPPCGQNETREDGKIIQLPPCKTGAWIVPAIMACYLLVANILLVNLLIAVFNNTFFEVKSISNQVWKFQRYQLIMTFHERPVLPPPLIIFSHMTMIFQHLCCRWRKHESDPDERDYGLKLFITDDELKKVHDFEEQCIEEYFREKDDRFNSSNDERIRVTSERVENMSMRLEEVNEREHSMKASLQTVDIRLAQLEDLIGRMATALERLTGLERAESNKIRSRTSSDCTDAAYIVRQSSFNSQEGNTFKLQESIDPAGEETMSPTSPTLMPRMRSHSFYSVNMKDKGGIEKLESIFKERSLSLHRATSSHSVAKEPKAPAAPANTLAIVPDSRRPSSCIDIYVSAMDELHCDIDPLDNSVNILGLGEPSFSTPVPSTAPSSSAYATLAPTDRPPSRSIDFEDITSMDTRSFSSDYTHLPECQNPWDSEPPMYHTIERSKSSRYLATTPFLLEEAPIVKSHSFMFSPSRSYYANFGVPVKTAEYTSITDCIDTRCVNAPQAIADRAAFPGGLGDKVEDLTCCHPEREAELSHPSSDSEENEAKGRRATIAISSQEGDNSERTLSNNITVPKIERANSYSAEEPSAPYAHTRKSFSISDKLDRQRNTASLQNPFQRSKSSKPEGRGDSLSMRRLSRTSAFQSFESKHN
T2 sequence (Q9HCF6 1-1707 isoform Q9HCF6-2): as the sequence (Q9HCF6 1-1707 isoform Q9HCF6-2 R1670Q) above, with Q1670R counted along it
T1 sequence (J9SQF3 whole entry): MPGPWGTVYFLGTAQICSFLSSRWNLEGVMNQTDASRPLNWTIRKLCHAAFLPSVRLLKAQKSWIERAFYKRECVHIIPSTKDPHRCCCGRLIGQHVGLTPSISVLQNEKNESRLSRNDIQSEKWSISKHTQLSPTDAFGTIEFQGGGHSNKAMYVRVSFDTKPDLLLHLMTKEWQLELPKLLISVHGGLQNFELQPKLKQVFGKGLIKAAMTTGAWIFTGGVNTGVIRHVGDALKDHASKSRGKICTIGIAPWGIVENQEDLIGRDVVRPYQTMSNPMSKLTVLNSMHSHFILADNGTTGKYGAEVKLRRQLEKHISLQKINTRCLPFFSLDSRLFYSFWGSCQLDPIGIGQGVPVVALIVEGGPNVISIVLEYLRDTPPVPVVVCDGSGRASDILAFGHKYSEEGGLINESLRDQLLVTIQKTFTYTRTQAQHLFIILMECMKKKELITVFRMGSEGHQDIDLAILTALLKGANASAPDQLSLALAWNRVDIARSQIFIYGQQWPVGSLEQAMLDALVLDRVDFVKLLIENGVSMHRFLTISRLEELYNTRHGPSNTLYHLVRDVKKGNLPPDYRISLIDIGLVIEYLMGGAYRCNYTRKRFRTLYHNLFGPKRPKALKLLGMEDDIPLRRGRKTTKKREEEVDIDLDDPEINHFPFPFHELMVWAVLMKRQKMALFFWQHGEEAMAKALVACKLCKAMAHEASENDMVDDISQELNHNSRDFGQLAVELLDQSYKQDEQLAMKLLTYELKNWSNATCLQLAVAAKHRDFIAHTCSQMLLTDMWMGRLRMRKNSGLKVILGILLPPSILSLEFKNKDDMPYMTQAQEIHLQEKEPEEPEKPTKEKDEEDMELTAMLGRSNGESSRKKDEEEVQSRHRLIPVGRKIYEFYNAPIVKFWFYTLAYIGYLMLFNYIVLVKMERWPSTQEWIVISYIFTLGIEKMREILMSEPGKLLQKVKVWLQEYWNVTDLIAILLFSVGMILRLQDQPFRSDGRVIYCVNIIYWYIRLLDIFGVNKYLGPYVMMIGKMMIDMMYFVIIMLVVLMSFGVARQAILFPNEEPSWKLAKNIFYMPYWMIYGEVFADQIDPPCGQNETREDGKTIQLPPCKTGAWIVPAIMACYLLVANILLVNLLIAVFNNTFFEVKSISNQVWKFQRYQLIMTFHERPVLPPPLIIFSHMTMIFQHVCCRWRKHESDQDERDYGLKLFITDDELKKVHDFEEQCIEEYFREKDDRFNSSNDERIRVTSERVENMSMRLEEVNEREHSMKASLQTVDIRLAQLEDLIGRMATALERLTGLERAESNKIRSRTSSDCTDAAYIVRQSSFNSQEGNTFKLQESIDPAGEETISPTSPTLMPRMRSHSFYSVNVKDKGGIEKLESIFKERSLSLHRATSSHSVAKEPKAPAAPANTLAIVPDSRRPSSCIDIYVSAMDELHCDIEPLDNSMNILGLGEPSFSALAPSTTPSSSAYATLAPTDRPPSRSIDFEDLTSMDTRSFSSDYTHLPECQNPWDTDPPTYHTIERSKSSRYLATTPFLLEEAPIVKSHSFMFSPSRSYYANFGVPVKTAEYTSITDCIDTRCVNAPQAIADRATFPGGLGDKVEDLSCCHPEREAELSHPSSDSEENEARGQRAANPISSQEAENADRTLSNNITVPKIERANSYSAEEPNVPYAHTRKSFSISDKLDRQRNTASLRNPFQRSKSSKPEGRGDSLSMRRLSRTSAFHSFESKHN

Consider `CNS(=O)(=O)Cc1ccc2[nH]cc(CCN(C)C)c2c1` [sumatriptan], for which the Mechanical nociception sensitivity result with rats [1] was “alleviated”. Also, in the series on PACAP-38, the PACAP-38 levels entry was “decreased PACAP-38 levels”.

Consider `Cc1cc(NC(=O)C(c2ccccc2)N2CCCc3ccccc32)no1` (racemic) [CIM0216, 2-(3,4-dihydroquinolin-1(2H)-yl)-N-(5-methylisoxazol-3-yl)-2-phenylacetamide], for which, in the series with TRPM3 [2], the “CGRP release from DRG neurons induced by TRPM3 agonist” value is listed as “induced a concentration dependent release of CGRP; also recorded: induce release of CGRP”. Besides, in the series with TRPM3 [3], the “TRPM3 dependence of agonist-induced PACAP release” value was “dependent on TRPM3”. Further, in the series with TRPM3 [4], the “CGRP release from Trpm3 deficient sensory neurons” value is “absent; also recorded: lacking” and the “CGRP release from wild type sensory neurons” value is on record as “dose-dependent release of CGRP”. The “CGRP release from isolated mouse hind paw skin” value at TRPM3 [5] is reported as “induced to release CGRP”. Further, the “CGRP release from TG neurons induced by TRPM3 agonist” value in the series with TRPM3 [6] is reported as “induced a concentration dependent release of CGRP; also recorded: stimulate release of CGRP”. The “Sensitivity to periorbital von Frey stimulation compared to vehicle treated animals” value with rats [7] is on record as “effective in increasing sensitivity to periorbital von Frey (VF) stimulation as early as Day 5”. Also, in the series with rats [7] (setting [10]), the “Mechanical allodynia in the periorbital region (von Frey thresholds)” value is listed as “induce mechanical allodynia in the periorbital region of rats; also recorded: trigger mechanical allodynia in the periorbital region” and the “Overt adverse effects / body weight” value is “do not cause overt adverse effects”.

For `COc1cc(CNC(=O)CCCC/C=C/C(C)C)ccc1O` [capsaicin], in the series with TRPM3 [3] (Trpm3 knockout mouse DRG and TG cells), the “PACAP release from Trpm3 knockout cells” value is recorded as “still responsive”. The “CGRP release from Trpm3 deficient sensory neurons” value in the series with TRPM3 [4] is on record as “could be induced by capsaicin”; with TRPM3 [4] (listed as Capsaicin) it was “evoked CGRP release”.

As to `Cc1cc(NC(=O)[C@@H](C)N2CCCc3ccccc32)no1` (single isomer, unassigned) [R-isomer], the “Relative agonist potency of the isomers of CIM0216 in calcium mobilisation assay” value at TRPM3 (SEQ ID NO: 2) was “more potent agonist compared to the S-isomer”; on TRPM3 (SEQ ID NO: 2) (listed as (R)-2-(3,4-dihydroquinolin-1(2H)-yl)-N-(5-methylisoxazol-3-yl)propenamide), “more potent agonist than the (S)-isomer”.

In the case of pregnenolone sulfate, the “CGRP release from DRG neurons induced by TRPM3 agonist” value in the series on TRPM3 [2] was “increased release of CGRP; also recorded: induce release of CGRP”. In addition, the “Increase in FLUO4 fluorescence, canonical TRPM3” value on TRPM3 (SEQ ID NO: 2) (setting [11]) is “induced concentration-dependent increases in FLUO4 fluorescence”. Further, the “TRPM3 dependence of agonist-induced PACAP release” value with TRPM3 [3] is listed as “dependent on TRPM3”. Besides, the “Increase in FLUO4 fluorescence, R1670Q variant” value in series [8] (setting [11]) was “induced concentration-dependent increases in FLUO4 fluorescence”. In series [8] (greater at R1670Q, equal multiplicities of infection), the “Potency at the R1670Q variant relative to canonical TRPM3” value was determined as 1.8 fold. The “Maximal fold change in fluorescence at R1670Q variant relative to canonical” value in series [8] (larger at R1670Q, equal multiplicities of infection) is on record as 26%. Further, the “CGRP release from Trpm3 deficient sensory neurons” value in the series on TRPM3 [4] is recorded as “absent”; with TRPM3 [4] (listed as PS), “lacking”. The “CGRP release from wild type sensory neurons” value with TRPM3 [4] is “dose-dependent release of CGRP”. Besides, the “Inward current in trigeminal neurons” value on TRPM3 [9] was “induced an inward current”. For the same compound, the “CGRP release from TG neurons induced by TRPM3 agonist” value in the series on TRPM3 [6] is given as “increased release of CGRP; also recorded: demonstrated to be concentration dependent; also recorded: stimulate release of CGRP”. For the same compound, the “Sensitivity to periorbital von Frey stimulation compared to vehicle treated animals” value in the series with rats [7] is given as “effective in increasing sensitivity to periorbital von Frey (VF) stimulation as early as Day 5”. In addition, the “Mechanical allodynia in the periorbital region (von Frey thresholds)” value in the series on rats [7] (setting [10]) is “induce mechanical allodynia in the periorbital region of rats; also recorded: trigger mechanical allodynia in the periorbital region”.
